For one assay, the target named is T1, ERβ (Homo sapiens, UniProt Q92731).
T1 construct: made in house; host or cells: E. coli
Briefly: Competition with [3H]-17β-estradiol for ERβ ligand binding domain. Conditions: for pIC50: crude E. coli lysate expressing human ERβ LBD (D, E, & F), 2 nM [3H]-17β-estradiol, 5-15 hours at room temperature; for α/β: receptor selectivity, ratio ERα IC50 / ERβ IC50. How it is done: (§1) Representative examples of the invention were evaluated for their ability to compete with 17β-estradiol for both ERα and ERβ. This test procedure provides the methodology for one to determine whether a particular compound binds to the estrogen receptor (and is therefore “estrogenic”) and whether there is selectivity for ERα or ERβ. […] 17β-estradiol is included as a standard reference for compalison. The procedure used is briefly described below. A crude lysate of E. coli expressing the estrogen receptor ligand binding domains (D, E, & F) of human ERα or ERβ was prepared. Both receptors and compounds were diluted in 1× Dulbecco's PBS (DPBS) supplemented with 1 mM EDTA. Using a high binding masked microtiter plate, 100 uL of receptor (1 uG/well) was combined with 2 nM [^3H]-17β-estradiol and various concentrations of compound. After between 5 and 15 hours at room temperature, the plates were washed with DPBS/1 mM EDTA and bound radioactivity determined by liquid scintillation counting.

A further assay addresses T2, ERα (Homo sapiens, UniProt P03372).
T2 construct: made in house; host or cells: E. coli
T2 sequence (P03372 311-547 limits assumed): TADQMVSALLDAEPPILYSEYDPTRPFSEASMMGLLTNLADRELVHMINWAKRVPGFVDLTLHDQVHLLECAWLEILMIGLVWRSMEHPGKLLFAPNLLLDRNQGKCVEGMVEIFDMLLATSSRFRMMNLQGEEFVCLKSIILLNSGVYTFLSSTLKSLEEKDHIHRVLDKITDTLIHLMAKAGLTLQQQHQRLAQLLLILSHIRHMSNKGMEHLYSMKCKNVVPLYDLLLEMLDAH
Briefly: Competition with [3H]-17β-estradiol for ERα ligand binding domain. Conditions: crude E. coli lysate expressing human ERα LBD (D, E, & F); 2 nM [3H]-17β-estradiol; 5-15 hours at room temperature. How it is done:
as §1

Each structure is given as a SMILES string. pIC50: −log10 of the molar value.

T1 sequence (Q92731 264-498 limits assumed): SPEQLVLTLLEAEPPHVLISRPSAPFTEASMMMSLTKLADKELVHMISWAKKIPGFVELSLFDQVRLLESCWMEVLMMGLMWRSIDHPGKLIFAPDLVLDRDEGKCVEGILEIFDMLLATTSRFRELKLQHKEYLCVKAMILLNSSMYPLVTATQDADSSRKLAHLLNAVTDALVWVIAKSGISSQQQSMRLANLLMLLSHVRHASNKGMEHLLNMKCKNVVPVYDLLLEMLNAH

Broadly, the pIC50 is the IC50 on a negative log10 scale, so that one unit is a factor of ten. Turning to `Oc1ccc(-c2cc(Cl)c3cc(O)ccc3n2)cc1` [Cpd 5a, 4-Chloro-2-(4-hydroxyphenyl)quinolin-6-ol], the pIC50 at ERβ is 8.34; on ERα, 6.67. For the same compound, at ERβ, the α/β amounted to 46.

`Oc1ccc2nc(-c3ccc(O)c(F)c3)cc(Cl)c2c1` [Cpd 5b, 4-Chloro-2-(3-fluoro-4-hydroxyphenyl)quinolin-6-ol] showed a pIC50 on ERα of 6.61.

`Oc1ccc2nc(-c3ccc(O)c(F)c3)cc(Br)c2c1` [Cpd 6b, 4-Bromo-2-(3-fluoro-4-hydroxyphenyl)quinolin-6-ol]: the pIC50 on ERβ is 8.47; on ERα, 6.55.

On to `Oc1ccc2nc(-c3cc(F)c(O)c(F)c3)cc(Br)c2c1` [Cpd 6c, 4-Bromo-2-(3,5-difluoro-4-hydroxyphenyl)quinolin-6-ol], for which, at ERβ, the pIC50 was 7.38 and the α/β stood at 23. At ERα, this compound had a pIC50 of 6.01.

As to `CC(=O)Oc1ccc2nc(-c3ccc(OC(C)=O)c(F)c3)cc(Br)c2c1` [Cpd 7, 6-Acetoxy-4-bromo-2-(3-fluoro-4-acetoxyphenyl)quinoline], on ERβ, the pIC50 was 6.70 and the α/β is above 25. The pIC50 at ERα is below 5.30.

As to `Oc1ccc(-c2cc(I)c3cc(O)ccc3n2)cc1` [Cpd 8a, 2-(4-Hydroxyphenyl)-4-iodoquinolin-6-ol], the pIC50 at ERβ is 8.62; on ERα, 6.99. Moreover, at ERβ, the α/β stood at 43.

For the compound `Oc1ccc2nc(-c3ccc(O)c(F)c3)cc(I)c2c1` [Cpd 8b, 2-(3-Fluoro-4-hydroxyphenyl)-4-iodoquinolin-6-ol], on ERβ, the pIC50 is 8.30 and the α/β stood at 73. In addition, the pIC50 at ERα is 6.44.

Take `C=Cc1cc(-c2ccc(O)c(F)c2)nc2ccc(O)cc12` [Cpd 11b, 2-(3-Fluoro-4-hydroxyphenyl)-4-vinylquinolin-6-ol]: on ERβ, the pIC50 was 7.43 and the α/β worked out at 12. This compound showed a pIC50 on ERα of 6.34.

As for `CCc1cc(-c2ccc(O)cc2)nc2ccc(O)cc12` [Cpd 12a, 4-Ethyl-2-(4-hydroxyphenyl)quinolin-6-ol], on ERβ, the pIC50 was 7.21 and the α/β is 14. This compound also gave a pIC50 on ERα of 6.08.

For `CCc1cc(-c2ccc(O)c(F)c2)nc2ccc(O)cc12` [Cpd 12b, 4-Ethyl-2-(3-fluoro-4-hydroxyphenyl)quinolin-6-ol], at ERβ, the pIC50 is 7.40 and the α/β is listed as 26. The compound also showed a pIC50 at ERα of 5.99.

Regarding `C[Si](C)(C)C#Cc1cc(-c2ccc(O)cc2)nc2ccc(O)cc12` [Cpd 13a, 2-(4-Hydroxyphenyl)-4-[(trimethylsilyl)ethynyl]quinolin-6-ol], at ERβ, the pIC50 is 6.79 and the α/β came out at 9. This compound also gave a pIC50 on ERα of 5.82.

With `C[Si](C)(C)C#Cc1cc(-c2ccc(O)c(F)c2)nc2ccc(O)cc12` [Cpd 13b, 2-(3-Fluoro-4-hydroxyphenyl)-4-[(trimethylsilyl)ethynyl]quinolin-6-ol], at ERβ, the pIC50 is 6.82 and the α/β came out at 11. The compound also showed a pIC50 at ERα of 5.77.

`C#Cc1cc(-c2ccc(O)cc2)nc2ccc(O)cc12` [Cpd 14a, 4-Ethynyl-2-(4-hydroxyphenyl)quinolin-6-ol]: at ERβ, the pIC50 is 7.12 and the α/β amounted to 20. Also, the pIC50 on ERα was 5.82.

`C#Cc1cc(-c2ccc(O)c(F)c2)nc2ccc(O)cc12` [Cpd 14b, 4-Ethynyl-2-(3-fluoro-4-hydroxyphenyl)quinolin-6-ol]: the pIC50 on ERβ is 7.49; on ERα, 5.47. Besides, the α/β at ERβ is on record as 106.

As for `Oc1ccc2nc(-c3ccc(O)c(F)c3)cc(C#Cc3ccccc3)c2c1` [Cpd 15, 2-(3-Fluoro-4-hydroxyphenyl)-4-(phenylethynyl)quinolin-6-ol], the pIC50 is 6.71 at ERβ and 4.92 on ERα. Further, at ERβ, the α/β amounted to 62.

Take `CC(=O)c1cc(-c2ccc(O)cc2)nc2ccc(O)cc12` [Cpd 16a, 4-Acetyl-2-(4-hydroxyphenyl)quinolin-6-ol]: at ERβ, the pIC50 is 6.68 and the α/β came to 14. The pIC50 at ERα is 5.53.

On to `CC(=O)c1cc(-c2ccc(O)c(F)c2)nc2ccc(O)cc12` [Cpd 16b, 4-Acetyl-2-(3-fluoro-4-hydroxyphenyl)quinolin-6-ol], for which, at ERα, the pIC50 was 5.47.

Take `CC(O)c1cc(-c2ccc(O)cc2)nc2ccc(O)cc12` (centres unmarked) [Cpd 17a, 4-(1-Hydroxyethyl)-2-(4-hydroxyphenyl)quinolin-6-ol]: the pIC50 on ERβ and at ERα was below 5.30 in each case.

Regarding `Oc1ccc2nc(-c3ccc(O)c(F)c3)cc(-c3nccs3)c2c1` [Cpd 18, 2-(3-Fluoro-4-hydroxyphenyl)-4-thiazol-2-yl-quinolin-6-ol], at ERβ, the pIC50 was 6.68 and the α/β is 10. At ERα, the pIC50 is 5.67.

On to `Oc1ccc2nc(-c3ccc(O)c(F)c3)cc(-c3ccccc3)c2c1` [Cpd 20, 2-(3-Fluoro-4-hydroxyphenyl)-4-phenylquinolin-6-ol], for which the results for the pIC50 at ERβ and at ERα were 6.89 and 5.86, respectively. In addition, the α/β at ERβ amounted to 11.

Take `Cc1ccc(-c2cc(-c3ccc(O)c(F)c3)nc3ccc(O)cc23)cc1` [Cpd 21, 2-(3-Fluoro-4-hydroxyphenyl)-4-(4-methylphenyl)quinolin-6-ol]: the pIC50 at ERβ is 6.95; at ERα it was 5.53. Further, the α/β at ERβ is 26.

On to `Oc1ccc2nc(-c3ccc(O)c(F)c3)cc(-c3ccc(F)cc3)c2c1` [Cpd 22, 2-(3-Fluoro-4-hydroxyphenyl)-4-(4-fluorophenyl)quinolin-6-ol], for which the pIC50 at ERβ is 7.48; on ERα, 6.23. Moreover, the α/β on ERβ worked out at 18.

`Oc1ccc2nc(-c3ccc(O)c(F)c3)cc(-c3ccc(Cl)cc3)c2c1` [Cpd 23, 4-(4-Chlorophenyl)-2-(3-fluoro-4-hydroxyphenyl)quinolin-6-ol]: the pIC50 on ERβ was 6.84; at ERα, below 6.00. On ERβ, the α/β was above 6.

Take `N#Cc1ccc(-c2cc(-c3ccc(O)c(F)c3)nc3ccc(O)cc23)cc1` [Cpd 24, 4-(4-Cyanophenyl)-2-(3-fluoro-4-hydroxyphenyl)quinolin-6-ol]: on ERβ, the pIC50 was 7.28 and the α/β was determined as 34. The compound further gave a pIC50 on ERα of 5.74.

For `Oc1ccc2nc(-c3ccc(O)c(F)c3)cc(-c3ccc(C(F)(F)F)cc3)c2c1` [Cpd 25, 2-(3-Fluoro-4-hydroxyphenyl)-4-(4-trifluoromethylphenyl)quinolin-6-ol], the pIC50 on ERβ and at ERα was below 5.30 throughout.

For the compound `Oc1ccc2nc(-c3ccc(O)c(F)c3)cc(-c3ccsc3)c2c1` [Cpd 26, 2-(3-Fluoro-4-hydroxyphenyl)-4-thiophen-3-yl-quinolin-6-ol], on ERβ, the pIC50 is 7.12 and the α/β came out at 12. On ERα, this compound gave a pIC50 of 6.06.

With `Oc1ccc2nc(-c3ccc(O)c(F)c3)cc(-c3ccncc3)c2c1` [Cpd 27, 2-(3-Fluoro-4-hydroxyphenyl)-4-(4-pyridinyl)quinolin-6-ol], on ERβ, the pIC50 was 7.11 and the α/β was above 12. On ERα, the pIC50 is below 6.00.

On to `Oc1ccc2nc(-c3ccc(O)c(F)c3)cc(-c3cncnc3)c2c1` [Cpd 28, 2-(3-Fluoro-4-hydroxyphenyl)-4-(5-pyrimidinyl)quinolin-6-ol], for which, at ERβ, the pIC50 is 6.01 and the α/β turned out to be 3. This compound also gave a pIC50 on ERα of 5.48.

The values are drawn from US7632845B2, “Phenyl quinolines and their use as estrogenic agents” (Wyeth, priority 2003, dated 2009).
